Patent US20240174690A1, “ANNULATED 2-AMINO-3-CYANO THIOPHENES AND DERIVATIVES FOR THE TREATMENT OF CANCER” (BOEHRINGER INGELHEIM INTERNATIONAL GMBH, priority 2021, published 2024)

How the values were obtained:
[1] = test system: KRAS G12D-dependent Ba/F3 cells; assay: Ba/F3 proliferation assay, KRAS G12D; type: cell-based; details: Mus musculus, BaF3, 72 h, AlamarBlue
Procedure, shortened: (§1)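 Transforming KRAS G12 mutants replaced IL-3 dependence in retrovirally engineered Ba/F3 cells, with puromycin omitted about ten days before testing. Growth under compound was quantified with an AlamarBlue fluorescent viability stain, in duplicate, by curve fitting.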

[2] = test system: KRAS G12C-dependent Ba/F3 cells; assay: Ba/F3 proliferation assay, KRAS G12C; type: cell-based; details: Mus musculus, BaF3, 72 h, AlamarBlue
Procedure, shortened: as §1

[3] = test system: KRAS G12V-dependent Ba/F3 cells; assay: Ba/F3 proliferation assay, KRAS G12V; type: cell-based; details: Mus musculus, BaF3, 72 h, AlamarBlue;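 also: proliferation IC50 in KRAS G12V-dependent Ba/F3 cells read by AlamarBlue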
Procedure, shortened: as §1

[4] = test system: NCI-H358 cells; assay: NCI-H358 CTG proliferation assay (120 h) (NSCLC, G12C); type: cell-based, human; details: Homo sapiens, assay 2, CTG, read-out: H358 (assay 2) IC50
Procedure, shortened: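 NCI-H358 cells (KRAS G12C) were seeded at 2000/well (assay 1) or 200/well (assay 2) in RPMI-1640 + 10% FCS and dosed with a logarithmic series, DMSO-normalized. After 120 h, viability was read by CellTiter-Glo luminescence as percent of DMSO control, with a T0 read at dosing. IC50 came from a four-parameter fit.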

[5] = test system: LOVO cells; assay: LOVO CTG proliferation assay (120 h) (CRC, G13D); type: cell-based; details: Homo sapiens, CTG 120 h
Procedure, shortened: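 LOVO cells, 1000 per well in DMEM + 10% FCS, were plated overnight and then dosed with compound from DMSO stock. After 120 h at 37 °C, viability was read by CellTiter-Glo luminescence as a percentage of DMSO controls. IC50 was derived by four-parameter non-linear regression.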

[6] = Metabolic (microsomal) stability assay, human liver microsomes (HLM); type: in vitro ADME; details: predicted clearance as percent of liver blood flow, 1 μM
Procedure, shortened: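 LC-MS/MS tracked parent disappearance at 0, 5, 15, 30 and 60 min in NADPH-initiated incubations with 1 mg/mL human microsomal protein and 1 μM compound at 37°C, pH 7.5. First-order fits gave intrinsic clearance, which was scaled up and reported as % QH. NADPH-free controls were also run.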

[7] = target: CYP3A4 (Homo sapiens (Human), UniProt P08684); assay: Mechanism based inhibition of CYP3A4 assay (MBI 3A4); type: in vitro ADME; details: hydroxy-midazolam formation after 30 min vs 0 min preincubation, 25 uM, human liver microsomes
Sequence of CYP3A4 (P08684 whole entry): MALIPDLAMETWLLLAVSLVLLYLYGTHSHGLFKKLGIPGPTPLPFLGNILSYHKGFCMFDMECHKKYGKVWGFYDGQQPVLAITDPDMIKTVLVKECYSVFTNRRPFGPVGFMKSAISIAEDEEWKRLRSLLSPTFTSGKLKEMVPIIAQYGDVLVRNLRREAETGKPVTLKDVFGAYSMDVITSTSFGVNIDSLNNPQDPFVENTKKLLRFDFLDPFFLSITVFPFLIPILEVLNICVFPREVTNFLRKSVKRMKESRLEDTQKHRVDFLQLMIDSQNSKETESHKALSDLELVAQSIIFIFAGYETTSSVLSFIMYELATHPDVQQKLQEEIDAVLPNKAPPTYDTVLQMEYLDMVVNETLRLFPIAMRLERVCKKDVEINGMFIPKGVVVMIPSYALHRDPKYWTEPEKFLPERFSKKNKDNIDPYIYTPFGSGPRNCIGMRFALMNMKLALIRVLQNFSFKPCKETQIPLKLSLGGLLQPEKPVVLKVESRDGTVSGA
Procedure, shortened: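 Human CYP3A4 activity after 30 min vs 0 min preincubation with test compound; incubate then diluted 1:10 and midazolam added for a 15 min main incubation. Quenched with acetonitrile; hydroxy-midazolam quantified by LC/MS-MS and expressed as % of the 0 min preincubation formation.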

IC50 [1] [nM] | IC50 [2] [nM] | IC50 [3] [nM] | IC50 [4] [nM] | IC50 [5] [nM] | HLM QH [6] [%] | MBI 3A4 [7] [%] | SMILES
35 | 31 | 31 | 337 | 72 | <24 | 80 | C[C@H](Oc1cc(N2CCC[C@@H](O)C2)nc(-c2noc3c2CCC[C@@]32CCCc3sc(N)c(C#N)c32)n1)[C@@H]1CCCN1C [II-59]
38 | 28 | 15 | 1040 | 49 | <24 | 72 | C[C@H](Oc1cc(C2=CCOCC2)nc(-c2noc3c2CCC[C@@]32CCCc3sc(N)c(C#N)c32)n1)[C@@H]1CCCN1C [II-67]
87 | 37 | 14 | 170 | 175 | 35 | 48 | C[C@H](Oc1cc(-c2ccncc2)nc(-c2noc3c2CCC[C@@]32CCCc3sc(N)c(C#N)c32)n1)[C@@H]1CCCN1C [II-78]
200 | 82 | 44 | 807 | 728 | <24 | 73 | C[C@H](Oc1cc(-c2cncnc2)nc(-c2noc3c2CCC[C@@]32CCCc3sc(N)c(C#N)c32)n1)[C@@H]1CCCN1C [II-82]
132 | 21 | 10 | 823 | 180 | 35 | 68 | CNC(=O)c1cn(-c2cc(O[C@@H](C)[C@@H]3CCCN3C)nc(-c3noc4c3CCC[C@@]43CCCc4sc(N)c(C#N)c43)n2)nn1 [II-122]
103 | 49 | 13 | 1200 | 289 | <24 | 62 | CC(=O)N1CC=C(c2cc(O[C@@H](C)[C@@H]3CCCN3C)nc(-c3noc4c3CCC[C@@]43CCCc4sc(N)c(C#N)c43)n2)CC1 [II-81]
80 | 13 | 18 | 78 | 76 | <24 | 63 | C[C@H](Oc1cc(-c2ccn(C3COC3)n2)nc(-c2noc3c2CCC[C@@]32CCCc3sc(N)c(C#N)c32)n1)[C@@H]1CCCN1C [II-109]
30 | 18 | 19 | 507 | 51 | 31 | 73 | C[C@H](Oc1cc(C2CCOCC2)nc(-c2noc3c2CCC[C@@]32CCCc3sc(N)c(C#N)c32)n1)[C@@H]1CCCN1C [II-76]
